Here are results for 1 compound from paper PMC12455570 (2025).

For this assay, the system named is FAM-(CUG)10-BHQ (RNA, repeat) GCGCUGCUGCUGCUGCUGCUGAAAAGCUGCUGCUGCUGCUGCGC
Nature of the assay: FAM/BHQ fluorescence thermal melting. Particulars: 5 μM compound.

As for `CC1CCCn2cc(-c3cccc(NC(=O)CCCCCCNCCCCNCCCCCCC(=O)Nc4cccc(-c5cn6c(n5)C(C)CCC6)c4)c3)nc21` (stereo not shown), the ΔTm – broadly, the shift of the melting midpoint relative to a reference – is 3.1 ± 0.7 °C.
